According to ChEMBL document CHEMBL1201862, “PubChem BioAssay data set” (2004):
Where “and” joins values, the source holds several entries; their conditions need not be identical. Identical values can stand only once.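 Protocol summary: plate cells (96-well), add compound at 5 concentrations, incubate 48 h, interpolate endpoints linearly. At the GI50, growth is halved.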 Calls of active or inactive are those of the source. Rule as the data show it: active = GI50 up to about 1.1 µM and inactive = higher.

What was measured:
Test in all cases: NCI anticancer screen, dose series, 48 h
A498 = tested on: A498
BT-549 = tested on: BT-549
Hs-578T = tested on: Hs-578T
MCF7 = tested on: MCF7
MOLT-4 = tested on: MOLT-4
NCI-H460 = tested on: NCI-H460
OVCAR-3 = tested on: OVCAR-3
OVCAR-4 = tested on: OVCAR-4
RPMI-8226 = tested on: RPMI-8226
SF-539 = tested on: SF-539
SK-MEL-2 = tested on: SK-MEL-2
SK-OV-3 = tested on: SK-OV-3
SNB-19 = tested on: SNB-19
SR = tested on: SR
TK-10 = tested on: TK-10
DLD-1 = tested on: DLD-1
KM-20L2 = tested on: KM-20L2
M19-MEL = tested on: M19-MEL
LXFL 529 = tested on: LXFL 529

Compound | GI50 (A498) | GI50 (BT-549) | GI50 (Hs-578T) | GI50 (MCF7) | GI50 (MOLT-4) | GI50 (NCI-H460) | GI50 (OVCAR-3) | GI50 (OVCAR-4) | GI50 (RPMI-8226) | GI50 (SF-539) | GI50 (SK-MEL-2) | GI50 (SK-OV-3) | GI50 (SNB-19) | GI50 (SR) | GI50 (TK-10) | GI50 (DLD-1) | GI50 (KM-20L2) | GI50 (M19-MEL) | GI50 (LXFL 529)
CC(NC(=O)C(NC(=O)CNC(=O)OC(C)(C)C)C(C)C)C(=O)Oc1c(Cl)c(Cl)c(Cl)c(Cl)c1Cl (configuration not stated) | 21.8 µM (inactive) | 23.8 µM (inactive) | 20.1 µM (inactive) | 25.5 µM (inactive) | 34.6 µM (inactive) | 18.6 µM (inactive) | 13.2 µM (inactive) | 18.8 µM (inactive) | 45.2 µM (inactive) | 17.5 µM (inactive) | 14.3 µM (inactive) | 21.5 µM (inactive) | 30.8 µM (inactive) | 71 µM (inactive) | 26.8 µM (inactive) |  |  |  | 
CCOCC(=O)N(C)c1cccc2c3c(n(C)c12)CCCCC3 | > 100 µM (inactive) |  |  | > 100 µM (inactive) | > 61.5 µM (inactive) | > 100 µM (inactive) | > 100 µM (inactive) | > 100 µM (inactive) |  | > 100 µM (inactive) | > 100 µM (inactive) | > 100 µM (inactive) | > 23.8 µM (inactive) |  |  | > 100 µM (inactive) | > 100 µM (inactive) | > 100 µM (inactive) | 
C=CCN1C(=O)/C(=C/c2ccccc2)N=C1SC1OC(COC(=O)c2ccccc2)C(OC(=O)c2ccccc2)C1OC(=O)c1ccccc1 (configuration not stated) | 49.8 µM (inactive) | > 100 µM (inactive) |  | 15.1 µM (inactive) | > 100 µM (inactive) | > 100 µM (inactive) | > 100 µM (inactive) | > 100 µM (inactive) | 16.4 µM (inactive) | > 100 µM (inactive) | > 100 µM (inactive) | > 100 µM (inactive) |  | 64.3 µM (inactive) | > 100 µM (inactive) |  |  |  | 
COC(=O)C1=C(OC(=O)/C(=C/c2ccc(Cl)cc2)c2ccc(Cl)cc2)C(C(=O)OC)[C@@]2(O)[C@@H](C(=O)OC)[C@H](C)C[C@@H]1[C@@H]2C(=O)OC (some centres not stated) | > 100 µM (inactive) |  | 39.4 µM (inactive) | 58.6 µM (inactive) | 0.328 µM (active) | 14.3 µM (inactive) | > 45.8 µM (inactive) | 50.8 µM (inactive) | 18 µM (inactive) | > 100 µM (inactive) | > 92.7 µM (inactive) | > 100 µM (inactive) | 16.4 µM (inactive) | > 63.2 µM (inactive) | > 100 µM (inactive) |  |  |  | 
COC(=O)/C(=C\c1ccco1)P(=O)(OC)OC | 54.3 µM (inactive) | 26.6 µM (inactive) | 54.1 µM (inactive) | 17.4 µM (inactive) | > 100 µM (inactive) | 48.3 µM (inactive) | 26.9 µM (inactive) | 17.8 µM (inactive) | 67.8 µM (inactive) | 32.5 µM (inactive) | 30.9 µM (inactive) | 73.6 µM (inactive) | 65.2 µM (inactive) | 52.8 µM (inactive) | > 100 µM (inactive) |  |  |  | 
C[C@]1(O)CC(=O)c2c(c(-c3ccc4cc5c(c(O)c4c3O)C(=O)C[C@@](C)(O)C5)c3cccc(O)c3c2O)C1 | 5.42 µM (inactive) | 5.89 µM (inactive) | 4.06 µM (inactive) | 5.53 µM (inactive) | 9.44 µM (inactive) | 3.24 µM (inactive) | 3.71 µM (inactive) | 7 µM (inactive) | 4.67 µM (inactive) | 2.75 µM (inactive) | 2.52 µM (inactive) | 10.3 µM (inactive) | 6.52 µM (inactive) | 5.56 µM (inactive) | 6.82 µM (inactive) |  |  |  | 
CN(C)C(=S)/N=C1\SC(=N\c2ccccc2)/C(=N/c2ccccc2)N1c1ccc([N+](=O)[O-])cc1 | > 100 µM (inactive) | > 100 µM (inactive) | > 100 µM (inactive) | > 100 µM (inactive) | 38.5 µM (inactive) | > 100 µM (inactive) | > 100 µM (inactive) |  | > 100 µM (inactive) |  | > 100 µM (inactive) | > 100 µM (inactive) | > 100 µM (inactive) | > 100 µM (inactive) |  |  |  |  | 
CN(C)C(=S)/N=c1\ss/c(=N\C(=S)N(C)C)n1C1CCCCC1 | > 100 µM (inactive) |  |  |  | 80.2 µM (inactive) | 0.515 µM (active) | > 100 µM (inactive) | 15.5 µM (inactive) | 25.5 µM (inactive) | > 100 µM (inactive) | > 100 µM (inactive) | > 100 µM (inactive) | 22 µM (inactive) | > 100 µM (inactive) | > 100 µM (inactive) |  | > 100 µM (inactive) | 0.524 µM (active) | 
CC1(C)O[C@H](C(=O)O)[C@@H](C(=O)O)O1 | > 100 µM (inactive) |  | > 100 µM (inactive) | > 100 µM (inactive) | > 100 µM (inactive) | > 100 µM (inactive) |  | > 100 µM (inactive) | > 100 µM (inactive) | > 100 µM (inactive) | > 100 µM (inactive) | > 100 µM (inactive) | > 100 µM (inactive) | > 100 µM (inactive) | > 100 µM (inactive) |  |  |  | 
COC(=N)C(C)C |  |  |  |  | > 100 µM (inactive) | > 100 µM (inactive) | > 100 µM (inactive) | > 100 µM (inactive) | > 100 µM (inactive) | > 100 µM (inactive) |  | > 100 µM (inactive) | > 100 µM (inactive) | > 100 µM (inactive) | > 100 µM (inactive) | > 100 µM (inactive) | > 100 µM (inactive) | > 100 µM (inactive) | > 100 µM (inactive)
N#CC1(C#N)C2CCCCC23OC(=N)C1(C#N)C(c1ccccc1)O3 (configuration not stated) | 17.8 µM (inactive) | 16.8 µM (inactive) | 0.302 µM (active) | 16.6 µM (inactive) | 25.1 µM (inactive) | 19 µM (inactive) | 13.6 µM (inactive) |  |  | 17.1 µM (inactive) | 20.2 µM (inactive) | > 100 µM (inactive) | 45.9 µM (inactive) |  | 16.6 µM (inactive) |  |  |  | 
NC(CSC(=O)c1ccccc1)C(=O)O (configuration not stated) | > 100 µM (inactive) | > 100 µM (inactive) | > 100 µM (inactive) | > 100 µM (inactive) | > 100 µM (inactive) | > 100 µM (inactive) | > 100 µM (inactive) | > 100 µM (inactive) | > 100 µM (inactive) | > 100 µM (inactive) | > 100 µM (inactive) | > 100 µM (inactive) | > 100 µM (inactive) | > 100 µM (inactive) | > 100 µM (inactive) |  |  |  | 
CN1CCN(C(=S)N(C(=O)c2ccc(Cl)cc2)C2CCCCC2)CC1 |  | > 100 µM (inactive) | 27.4 µM (inactive) | > 100 µM (inactive) | 63.1 µM (inactive) | > 100 µM (inactive) | > 100 µM (inactive) | > 100 µM (inactive) | > 100 µM (inactive) |  | > 100 µM (inactive) |  | > 100 µM (inactive) | 58.9 µM (inactive) | > 100 µM (inactive) |  |  |  | 
CC#CC#C/C=C1\C=CC2(OC=CC2OC(C)=O)O1 (configuration not stated) | 47.6 µM (inactive) and 80.9 µM (inactive) | 34.7 µM (inactive) | 27.4 µM (inactive) | 14.4 µM (inactive) |  | 32.3 µM (inactive) and 21.7 µM (inactive) | 32.2 µM (inactive) |  | 23.2 µM (inactive) | 25.5 µM (inactive) and 20.7 µM (inactive) |  | > 100 µM (inactive) and > 89.1 µM (inactive) | > 100 µM (inactive) and > 82.2 µM (inactive) | 17.6 µM (inactive) and 15.3 µM (inactive) | 34 µM (inactive) and 28.1 µM (inactive) | 16.5 µM (inactive) | 3.51 µM (inactive) |  | 16.3 µM (inactive)
